Results as given in patent publication US10150772B2, “Crystalline forms of PARP inhibitors” (priority 2014, dated 2018).
Structures can show the parent of a compound that is named as a salt. Where two headings read alike, the source gives them in different places.

Legend:
[1] = Estimation of water solubility; type: physicochemical
Description: Estimation of Water Solubility: Ten mg portions of the salt forms to be studied were weighed into a standard 1.5 mL HPLC vial (32×11.6 mm). […] An estimation of solubility was based on the volume of water necessary to dissolve the known weight of sample.

[2] = type: physicochemical; settings: for Stability to the test conditions (in words): 28 day test period
Description: Identity, Assay, and Purity by HPLC
Testing was performed on a calibrated and validated Agilent 1200 Rapid Resolution High Performance Liquid Chromatography (HPLC) system designated LC-0430-AD or LC-418-1D. The system comprises a binary SL pump, degasser, high performance autosampler SL with a fraction collector, thermostated column compartment with a 2 valve column switcher, and a DAD SL detector. All standard solutions and samples were prepared in Class A glass volumetric flasks and were placed in autosampler vials. Standard weighings were done using a calibrated Mettler analytical balance. The sample preparations were centrifuged using an Eppendorf microcentrifuge. The primary chromatography data was acquired and integrated using Empower 2 software. Microsoft Office Excel 2003 was used for the calculation of results.
Solid State Stability of Salts at 40° C. and 75% Humidity:
Samples of the form to be studied (15-20 mg) were weighed into standard 1.5 mL HPLC vials (32×11.6 mm) and stored uncapped for 0, 7, 14 and 28 days in a 40° C. and 75% RH stability chamber. Samples were removed on the indicated day and capped. Measurements of XRPD, DSC, TGA and HPLC Identity by Purity and Assay measurements were completed on each time point sample.

[3] = Dynamic vapor sorption (DVS), water sorption; type: physicochemical; settings: for DVS sorption behaviour (in words) / Total uptake (moisture): 25° C., DVS; for Total uptake (moisture): entire RH range
Description: Dynamic Vapor Sorption (DVS):
DVS experiments have been carried out using the DVS-HT instrument (Surface Measurement Systems, London, UK). This instrument measures the uptake and loss of vapor gravimetrically using a recording ultra-microbalance with a mass resolution of ±0.1 μg. The vapor partial pressure (±1.0%) around the sample is controlled by mixing saturated and dry carrier gas streams using electronic mass flow controllers. The desired temperature is maintained at ±0.1° C. The samples (1-10 mg) were placed into the DVS-HT and DVS-1 instruments at the desired temperature.
The sample was loaded and unloaded at 40% RH and 25° C. (typical room conditions). A moisture sorption isotherm was performed as outlined below (2 scans giving 1 complete cycle). The software uses a least squares minimization procedure together with a model of the mass relaxation, to predict an asymptotic value. The measured mass equilibration value must be within 2% of that predicted by the software before proceeding to the next % RH value. The minimum equilibration time was set to 1 hour and the maximum to 4 hours.

[4] = initial, before 40° C. and 75% RH stability testing
[5] = 40° C. and 75% RH, day 14, HPLC
[6] = 40° C. and 75% RH, day 28, HPLC

COc1cccc2[nH]c3c4c(c5c(c3c12)C(=O)N(CN1CCN(C)CC1)C5=O)CCC4.O=C(O)C[C@H](O)C(=O)O [L-malate (2 Eq.)]
Est. Water Solubility [1]: >100 mg/mL | COMPOUND B After 40/75 ([2]; after 40° C. and 75% RH stability testing): 1.2% | COMPOUND A Initial [2, 4]: 71.3% | COMPOUND B Initial [2, 4]: 0.2% | TGA ([2]; initial, comparison of salts): 0.1% | DVS ([3]; water sorption reversible or irreversible): Irreversible

COc1cccc2[nH]c3c4c(c5c(c3c12)C(=O)N(CN1CCN(C)CC1)C5=O)CCC4 [Acetate Salt, Form A1.5]
Stability to the test conditions (in words) ([2]; 40° C. and 75% RH): changes throughout the 28 day test period | HPLC Purity ([2]; 40° C. and 75% RH, day 0): 99.7% | TGA ([2]; 40° C. and 75% RH, day 0): 21.5% | COMPOUND A Assay ([2]; 40° C. and 75% RH, day 0, HPLC): 78.1% | COMPOUND B Assay ([2]; 40° C. and 75% RH, day 0, HPLC): 0.2% | HPLC Purity ([2]; 40° C. and 75% RH, day 7): 99.6% | TGA ([2]; 40° C. and 75% RH, day 7): 20.0% | XRPD ([2]; 40° C. and 75% RH, day 7): Shows hydrate | COMPOUND A Assay ([2]; 40° C. and 75% RH, day 7, HPLC): 70.2% | COMPOUND B Assay ([2]; 40° C. and 75% RH, day 7, HPLC): 0.1% | HPLC Purity ([2]; 40° C. and 75% RH, day 14): 99.5% | TGA ([2]; 40° C. and 75% RH, day 14): 16.1% | XRPD ([2]; 40° C. and 75% RH, day 14): Shows hydrate | COMPOUND A Assay [2, 5]: 84.2% | COMPOUND B Assay [2, 5]: 0.2% | HPLC Purity ([2]; 40° C. and 75% RH, day 28): 99.6% | TGA ([2]; 40° C. and 75% RH, day 28): 9.6% | XRPD ([2]; 40° C. and 75% RH, day 28): Shows hydrate, | COMPOUND A Assay [2, 6]: 90.9% | COMPOUND B Assay [2, 6]: 0.3% | DVS sorption behaviour (in words) [3]: steady weight loss during the drying curves with no equilibration reached

COc1cccc2[nH]c3c4c(c5c(c3c12)C(=O)N(CN1CCN(C)CC1)C5=O)CCC4 [L-Malate Salt, Form A1]
Stability to the test conditions (in words) ([2]; 40° C. and 75% RH): stable to the test conditions | HPLC Purity ([2]; 40° C. and 75% RH, day 0): 99.5% | TGA ([2]; 40° C. and 75% RH, day 0): 0.1% | COMPOUND A Assay ([2]; 40° C. and 75% RH, day 0, HPLC): 69.9% | COMPOUND B Assay ([2]; 40° C. and 75% RH, day 0, HPLC): 0.2% | HPLC Purity ([2]; 40° C. and 75% RH, day 7): 99.3% | TGA ([2]; 40° C. and 75% RH, day 7): 0.2% | XRPD ([2]; 40° C. and 75% RH, day 7): No change | COMPOUND A Assay ([2]; 40° C. and 75% RH, day 7, HPLC): 71.8% | COMPOUND B Assay ([2]; 40° C. and 75% RH, day 7, HPLC): 0.4% | HPLC Purity ([2]; 40° C. and 75% RH, day 14): 98.8% | TGA ([2]; 40° C. and 75% RH, day 14): 0.8% | XRPD ([2]; 40° C. and 75% RH, day 14): No change | COMPOUND A Assay [2, 5]: 72.0% | COMPOUND B Assay [2, 5]: 0.5% | HPLC Purity ([2]; 40° C. and 75% RH, day 28): 98.4% | TGA ([2]; 40° C. and 75% RH, day 28): 0.3% | XRPD ([2]; 40° C. and 75% RH, day 28): No change | COMPOUND A Assay [2, 6]: 71.7% | COMPOUND B Assay [2, 6]: 0.8% | DVS sorption behaviour (in words) [3]: very little water absorption during the first cycle from 40% RH to 70% RH | Total uptake (moisture) [3]: ~2%

COc1cccc2[nH]c3c4c(c5c(c3c12)C(=O)N(CN1CCN(C)CC1)C5=O)CCC4 [Hydrochloride Salt, Form A]
Stability to the test conditions (in words) ([2]; 40° C. and 75% RH): relatively constant XRPD pattern | Compound A Assay value, change (in words) ([2]; 40° C. and 75% RH, after 28 days): decreasing to nearly half | DVS sorption behaviour (in words) [3]: surface adsorption with limited bulk absorption throughout the entire RH range | Total uptake (moisture) [3]: ~2.25%
